Assay results reported in article PMC12655621 (Pharmaceuticals, 2025).

How the values were obtained:
[1] = Shake-flask logD7.4 n-octanol/PBS; type: physicochemical; conditions: n-octanol/PBS pH 7.4, shake-flask, room temperature
Description: A PBS (pH 7.4) solution was saturated with n-octanol, and n-octanol was saturated with PBS (pH 7.4) by vigorous shaking, followed by equilibration for at least 24 h to ensure complete phase separation. The reference compound 4-chloro-6,7-bis(2-methoxyethoxy)quinazoline and analogs 1–7 were dissolved in the octanol phase (previously saturated with PBS), and equal volumes of the aqueous phase (previously saturated with octanol) were added. Final assay solutions were prepared at 10 μM by diluting 2 μL of a 5 mM stock solution into 1 mL of total volume. The biphasic mixtures were shaken for 24 h at room temperature. After equilibration, both the octanolic and aqueous phases were analyzed by UV–visible spectrophotometry using a Shimadzu UV-1603. […] LogD7.4 values were calculated as […]. Each determination was performed in triplicate. Regression analyses and curve fittings were performed using GraphPad Prism 8.0 software (GraphPad Software Inc., LaJolla, CA, USA).

[2] = test system: U87 MG; set-up: method as in earlier work; conditions: human U87 MG glioma cells; errors omitted; ref 19 (compounds 8 and 9: ref 13); cited from earlier work
[3] = test system: F98; set-up: method as in earlier work; conditions: F98 rat glioma cells; errors omitted; ref 19 (compounds 8 and 9: ref 13); cited from earlier work
[4] = test system: Mix of primary glial cell culture; set-up: method as in earlier work; conditions: mix of primary glial cell culture (healthy cells); errors omitted; ref 19 (compounds 8 and 9: ref 13); cited from earlier work
[5] = test system: C6; set-up: method as in earlier work; conditions: C6 glioma cells; errors omitted; ref 19 (compounds 8 and 9: ref 13); cited from earlier work

Compound | logD at 24 h [1] | IC50 [2] [µM] | IC50 [3] [µM] | IC50 [4] [µM] | IC50 [5] [µM]
COCCOc1cc2ncnc(Cl)c2cc1OCCOC [4-chloro-6,7-bis(2-methoxyethoxy)quinazoline] | 1.02 | – | – | – | –
C#Cc1cccc(Nc2ncnc3cc(OCCOC)c(OCCOC)cc23)c1 [Erl, erlotinib] | – | 63 | > 100 | > 100 | > 100
